The record followed here is ChEMBL document CHEMBL3785043, “Exploring the purine core of 3'-C-ethynyladenosine (EAdo) in search of novel nucleoside therapeutics” (Bioorg Med Chem Lett, 2016).

The term IC50 denotes the concentration at which inhibition is half-maximal. For orientation: EC50 means the concentration needed to bring the measured effect to its halfway point. Lower therefore signals higher potency in that assay. What is called inhibition is the share of the control response that was lost under treatment.

Assay [1] concerns Human betaherpesvirus 5. Description: Antiviral activity against Human cytomegalovirus Davis at 100 uM. In kind it is functional, organism-based.
Assay [2] relates to Human immunodeficiency virus 1. As to the kind of experiment: Antiviral activity against HIV1 3B infected in human MT4 cells at 100 uM preincubated with cells for 30 mins followed by HIV inoculation measured after 4 to 5 days by microscopic analysis. It is filed as functional, organism-based.
Assay [3] concerns Influenza A virus. Description: Antiviral activity against Influenza virus A H1N1 at 100 uM. It is filed as functional, organism-based.
Assay [4] relates to Human betaherpesvirus 5. As to the kind of experiment: Antiviral activity against Human cytomegalovirus AD169 at 100 uM. It is filed as functional, organism-based.
Assay [5] has as its system CCRF-CEM. As to the kind of experiment: Cytostatic activity against human CEM cells after 72 hrs by Coulter counter method. In kind it is functional, cell-based.
Assay [6] deals with Human adenovirus 2. As to the kind of experiment: Antiviral activity against Adenovirus 2 at 100 uM. It is filed as functional, organism-based.
In assay [7] the test system is Vesicular stomatitis virus. Description: Antiviral activity against VSV at 100 uM. In kind it is functional, organism-based.
The test system of assay [8] is Human alphaherpesvirus 2. As to the kind of experiment: Antiviral activity against HSV-2 lyons at 100 uM. In kind it is functional, organism-based.
Assay [9] concerns Mammalian orthoreovirus 1. As to the kind of experiment: Antiviral activity against Reovirus 1 at 100 uM. It is filed as functional.
Assay [10] relates to Sindbis virus. Description: Antiviral activity against Sindbis virus at 100 uM. It is filed as functional, organism-based.
The subject of assay [11] is Coxsackievirus B4. Description: Antiviral activity against Coxsackie B4 virus at 100 uM. In kind it is functional, organism-based.
For assay [12], the system named is HeLa. As to the kind of experiment: Cytostatic activity against human HeLa cells after 72 hrs by Coulter counter method. In kind it is functional, cell-based.
Assay [13] has as its system Human immunodeficiency virus 2. Description: Antiviral activity against HIV2 ROD infected in human MT4 cells at 100 uM preincubated with cells for 30 mins followed by HIV inoculation measured after 4 to 5 days by microscopic analysis. The note with it: ISOLATE ROD. In kind it is functional, organism-based.
Assay [14] has as its system Human alphaherpesvirus 2. Description: Antiviral activity against HSV-2 G at 100 uM. In kind it is functional, organism-based. The note with it: strain G.
Assay [15] has as its system Respiratory syncytial virus. As to the kind of experiment: Antiviral activity against Respiratory syncytial virus long at 100 uM. It is filed as functional, organism-based.
The subject of assay [16] is Human alphaherpesvirus 1. As to the kind of experiment: Antiviral activity against HSV-1 KOS at 100 uM. It is filed as functional, organism-based.
Assay [17] relates to Influenza A virus. As to the kind of experiment: Antiviral activity against Influenza virus A H3N2 at 100 uM. In kind it is functional, organism-based.
In assay [18] the test system is Human respirovirus 3. Description: Antiviral activity against parainfluenza virus 3 at 100 uM. It is filed as functional, organism-based.
Assay [19] has as its system Punta Toro virus. As to the kind of experiment: Antiviral activity against Punta Toro virus at 100 uM. In kind it is functional, organism-based.
Assay [20] concerns Influenza B virus. Description: Antiviral activity against Influenza virus B at 100 uM. It is filed as functional, organism-based.
Assay [21] concerns L1210. Description: Cytostatic activity against mouse L1210 cells after 48 hrs by Coulter counter method. In kind it is functional, cell-based. The following applies: L1210, 48 h.
The subject of assay [22] is Human immunodeficiency virus 1. Description: Antiviral activity against HIV 1 NL4-3 infected in human MT4 cells at 100 uM preincubated with cells for 30 mins followed by HIV inoculation measured after 4 to 5 days by microscopic analysis. In kind it is functional, organism-based.
Assay [23] relates to Human alphaherpesvirus 1. Description: Antiviral activity against Aciclovir-resistant thymidine kinase-deficient HSV-1 KOS at 100 uM. It is filed as functional, organism-based.
Assay [24] deals with Vaccinia virus. Description: Antiviral activity against Vaccinia virus Lederle. It is filed as functional, organism-based. The note with it: Orthopoxvirus vaccinia.
Assay [25] has as its target Adenosine receptor A3 (Homo sapiens) (UniProt P0DMS8). Description: Agonist activity at adenosine A3 receptor (unknown origin) assessed as inhibition of forskolin-stimulated adenylyl cyclase activity at 10 uM. In kind it is functional.

Calls of active or inactive are those of the source. The rule behind the calls is not given here.

Adenosine receptor A3 (Homo sapiens), sequence (P0DMS8 whole entry): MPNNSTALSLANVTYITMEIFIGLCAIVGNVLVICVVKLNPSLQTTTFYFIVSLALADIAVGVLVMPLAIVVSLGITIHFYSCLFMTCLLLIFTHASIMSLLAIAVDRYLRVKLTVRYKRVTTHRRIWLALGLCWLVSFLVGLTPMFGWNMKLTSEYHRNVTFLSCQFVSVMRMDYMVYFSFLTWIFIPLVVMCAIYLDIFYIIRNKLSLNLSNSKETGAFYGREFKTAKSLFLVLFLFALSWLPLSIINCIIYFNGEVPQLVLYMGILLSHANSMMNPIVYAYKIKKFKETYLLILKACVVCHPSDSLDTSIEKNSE

Regarding `C#C[C@@]1(O)[C@@H](CO)O[C@@H](n2cnc3c(OC)nc(N)nc32)[C@@H]1O`, the result in [1], in assay [2], in assay [3], in assay [4], in [6] and in assay [7] was inactive. Also, the result in [8], in assay [9], in [10], in assay [11], in assay [13] and in [14] was inactive. Also, the result in assay [15], in assay [16], in [17], in assay [18], in [19] and in assay [20] was inactive. Moreover, the outcome in assay [22] and in [23] was inactive. The IC50 in [5], in [12] and in [21] was greater than 250 µM each time.

On to `C#C[C@@]1(O)[C@@H](CO)O[C@@H](n2cnc3c(N)nc(Cl)nc32)[C@@H]1O`, for which the outcome in assay [1], in assay [2], in assay [3], in assay [4], in assay [6] and in assay [7] was inactive. Besides, the outcome in assay [8], in [9], in [10], in assay [11], in assay [13] and in assay [14] was inactive. Moreover, the outcome in [15], in assay [16], in assay [17], in [18], in [19] and in assay [20] was inactive. The result in assay [22] and in assay [23] was inactive. The IC50 in assay [5] is greater than 250 µM; in assay [12], greater than 250 µM; in assay [21], 167 µM.

Take `C#C[C@@]1(O)[C@@H](CO)O[C@@H](n2cnc3c(Cl)nc(N)nc32)[C@@H]1O`: the result in assay [1], in assay [2], in assay [3], in assay [4], in assay [6] and in [7] was inactive. For the same compound, the result in assay [8], in assay [9], in [10], in [11], in assay [13] and in assay [14] was inactive. Moreover, the result in assay [15], in [16], in assay [17], in assay [18], in [19] and in assay [20] was inactive. Further, the outcome in [22] and in [23] was inactive. In addition, the IC50 in [5], in assay [12] and in assay [21] was greater than 250 µM throughout. The compound further displayed an EC50 in [24] of 51 µM.

Regarding `C#C[C@@]1(O)[C@@H](CO)O[C@@H](n2cnc3c(NC4CCCC4)nc(Cl)nc32)[C@@H]1O`, the result in assay [1], in assay [2], in [3], in [4], in assay [6] and in assay [7] was inactive. The outcome in assay [8], in assay [9], in assay [10], in [11], in [13] and in assay [14] was inactive. For the same compound, the outcome in assay [15], in [16], in assay [17], in assay [18], in assay [19] and in assay [20] was inactive. For the same compound, the result in [22] and in assay [23] was inactive. Moreover, the values for the IC50 in assay [5], in assay [12] and in assay [21] were 104 µM, 150 µM and 170 µM, respectively. Besides, the inhibition in [25] worked out at 70%.

Consider `C#C[C@@]1(O)[C@@H](CO)O[C@@H](n2cnc3c(OC)nc(OC)nc32)[C@@H]1O`, for which the result in [1], in assay [2], in assay [3], in assay [4], in assay [6] and in [7] was inactive. Further, the result in assay [8], in [9], in assay [10], in assay [11], in assay [13] and in assay [14] was inactive. In addition, the result in assay [15], in assay [16], in [17], in assay [18], in assay [19] and in assay [20] was inactive. In addition, the result in assay [22] and in assay [23] was inactive. The IC50 in [5], in assay [12] and in [21] was greater than 250 µM throughout.

Regarding `C#C[C@@]1(O)[C@@H](CO)O[C@@H](n2cnc3c(OC)nc(Cl)nc32)[C@@H]1O`, the result in [1], in assay [2], in [3], in assay [4], in assay [6] and in assay [7] was inactive. Further, the result in [8], in [9], in [10], in [11], in assay [13] and in [14] was inactive. Also, the result in assay [15], in assay [16], in assay [17], in [18], in assay [19] and in [20] was inactive. Moreover, the outcome in assay [22] and in assay [23] was inactive. The IC50 in assay [5] is 210 µM; in [12] it was 175 µM; in assay [21], greater than 250 µM.

As to `C#C[C@@]1(O)[C@@H](CO)O[C@@H](n2cnc3c(N)nc(N)nc32)[C@@H]1O`, the result in assay [1], in assay [2], in assay [3], in assay [4], in assay [6] and in assay [7] was inactive. The outcome in assay [8], in assay [9], in assay [10], in assay [11], in assay [13] and in [14] was inactive. In addition, the result in [15], in [16], in assay [17], in assay [18], in [19] and in assay [20] was inactive. Also, the outcome in [22] and in assay [23] was inactive. The results for the IC50 in assay [5], in [12] and in assay [21] were no less than 250 µM, 123 µM and 193 µM, respectively.
